From patent US5294611A, “Angiotensin II receptor blocking 2,3,6 substituted quinazolinones” (American Cyanamid Company, priority 1993, dated 1994)
pIC50: −log10 of the molar value.

Biological target: T1, Angiotensin II Receptor (Bos taurus, UniProt P25104)
T1 construct: The brownish tissue forming the adrenal cortex is scraped off and finely minced with scissors before homogenization; tissue local slaughter house (maxwell-Cohen); host or cells: beef adrenal cortex, 100,000 x g microsomal membranes
T1 sequence (P25104 1-359): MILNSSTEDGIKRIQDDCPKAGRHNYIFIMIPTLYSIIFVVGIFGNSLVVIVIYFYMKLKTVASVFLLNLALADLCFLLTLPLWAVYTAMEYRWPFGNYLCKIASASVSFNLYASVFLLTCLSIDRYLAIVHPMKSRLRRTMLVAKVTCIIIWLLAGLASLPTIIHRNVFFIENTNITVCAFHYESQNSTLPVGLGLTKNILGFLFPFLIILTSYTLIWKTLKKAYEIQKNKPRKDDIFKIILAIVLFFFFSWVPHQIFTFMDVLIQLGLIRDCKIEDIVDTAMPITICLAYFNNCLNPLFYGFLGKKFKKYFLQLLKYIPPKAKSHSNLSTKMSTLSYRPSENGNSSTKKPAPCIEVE
Assay: Receptor Binding Assay: displacement of [^125 I](Sar^1,Ile^8)AngII from adrenal cortex microsomal membranes
Set-up: species or system beef (bovine adrenals)
From the text: Beef adrenals are obtained from a local slaughter house (maxwell-Cohen). [^125 I](Sar^1,Ile^8)AngII, S.A. 2200 Ci/mmole, is purchased from Dupont (NEN®, Boston, Mass.). All unlabeled AngII analogs, Dimethylsulfoxide (DMSO), nucleotides, bovine serum albumin (BSA) are purchased from Sigma Chemical Co., St. Louis, Mo. U.S.A.
Approximately sixteen (16) to twenty (20) beef adrenal glands are processed as follows: fresh adrenal glands received on crushed ice are cleaned of fatty tissues and the tough membranes encapsulating the glands are removed and discarded. The brownish tissue forming the adrenal cortex is scraped off and finely minced with scissors before homogenization. Care is taken to avoid contamination with medullary tissue during dissection. The scraped cortices are suspended in twenty volumes of an ice-cold buffer medium consisting of 10 mM Tris.HCl (pH 7.4 at 22° C.) and containing 1.0 mM EDTA and 0.2M sucrose. Unless otherwise indicated, all subsequent operations are done at 4° C. […] The homogenate is centrifuged first at low speed (3,000× g) for 10 min. The resulting pellet is discarded and the supernatant fluid recentrifuged at 10,000× g for 15 minutes to give a P2 pellet. This P2 pellet is discarded and the liquid phase is carefully decanted off in clean centrifuge tubes and recentrifuged at high speed (100,000× g) for 60 min. The translucent final pellet is harvested and combined in a small volume (20-50.0 ml) of 50.0 mM Tris.HCl buffer, pH 7.2. A 100 ul aliquot is withdrawn and the protein content of the preparation is determined by the Lowry's method (Lowry, O. H., Rosebrough, N. F., Parr, A. L. and Randall, R. J., Protein measurement with Folin phenol reagent. J. Biol. Chem., 48, 265-275; 1951). The pelleted membrane is reconstituted in 50.0 mM Tris.HCl buffer containing 0.1 mM of phenylmethylsulfonyl fluoride (PMSF) to give approximately a protein concentration of 2.5 mg per ml of tissue suspension. The membrane preparation is finally aliquoted in 1.0 ml volumes and stored at -70° C. until use in the binding assays.
The binding of [^125 I](Sar^1,Ile^8)AngII to microsomal membranes is initiated by the addition of reconstituted membranes (1:10 vols.) in freshly made 50.0 mM Tris.HCl buffer, pH 7.4 containing 0.25% heat inactivated bovine serum albumin (BSA): 80 ul membrane protein (10 to 20 ug/assay) to wells already containing 100 ul of incubation buffer (as described above) and 20 ul [^125 I](Sar^1,ILE^8)AngII (Specific Activity, 2200 Ci/mmole). Non-specific binding is measured in the presence of 1.0 uM unlabeled (Sar^1,ILE^8)AngII, added in 20 ul volume. […] In competition studies, experimental compounds are diluted in dimethylsulfoxide (DMSO) and added in 20 ul to wells before the introduction of tissue membranes. […] Assays are performed in triplicate. The wells are left undisturbed for 60 min. at room temperature. Following incubation, all wells are harvested at once with a Brandel® Harvester especially designed for a 96 well plate (Brandel® Biomedical Research & Development Labs. Inc., Gaithersburg, Md., U.S.A.). The filter discs are washed with 10×1.0 ml of cold 0.9% NaCl to remove unbound ligand. […] This method is routinely used. The filters are removed from the filter grid and counted in a Parkard® Cobra Gamma Counter for 1 min. (Packard Instrument Co., Downers Grove, Ill., U.S.A.). The binding data are analyzed by the non-linear interactive "LUNDON-1" program (LUNDON SOFTWARE Inc., Cleveland, Ohio U.S.A.).

Compound | pIC50 | Specific binding of radioligand (microsomal membranes, 60 min, room temperature)
CCCCc1nc2ccc([C@@H]3[C@@H]4C(=O)OC[C@@H]4ON3C)cc2c(=O)n1Cc1ccc(-c2ccccc2-c2nnn[nH]2)cc1 (relative stereo) [Example 54] | 6.80 | –
[^125 I](Sar^1,Ile^8) AngII [reference compound] | – | greater than 90%
